From patent US10028913B2, “Liposomal pharmaceutical preparation and method for manufacturing the same” (priority 2006, dated 2018)
“And” between values parts separate entries of the source, which are not always exact repeats. Equal entries are not always repeated. Where two headings read alike, the source gives them in different places.

Columns and labels:
Kunming mice = experiment: Acute toxicity comparison of PLM60 and FM to Kunming mice; format: in vivo
Source text: Mice of groups 1-5 were administrated with different dose levels of FM, while mice of groups 6-10 were administrated with an equivalent dose level of liposomal drug. […] The dead animals were dissected and autopsied.

[1] = Pharmacokinetics of PLM60 and FM in Kunming mice (plasma level of mitoxantrone); format: in vivo; settings: 2 mg/kg, tail vein
Protocol: This example was conducted in male Kunming mice with a body weight of about 20 g. Different dose levels of mitoxantrone were injected through tail vein in mice. […] Plasma samples were taken at different time points. The methods for processing and detecting plasma samples were described in the document: Methods in enzymology, Vol: 391, p176-185.

[2] = Tissue distribution in S-180 tumor-bearing mice; format: in vivo; settings: male, Kunming, mouse, intravenous, 4 mg/kg i.v.; for concentration at 1 h: t 1 h; for concentration at 4 h: t 4 h; for concentration at 8 h: t 8 h; for concentration at 24 h: t 24 h
Protocol: There were obvious differences in tissue distribution between PLM60 and FM in tumor-bearing mice. Male Kunming mice having a body weight about 20 g were used in the present example. […] Drugs were injected through vein in mice when tumor grew to 0.4-0.7 g. After the administration of drugs, mice were executed at various time points and their tissues were taken out to determine the concentration of mitoxantrone. The tissues included hearts, livers, spleens, lungs, kidneys, intestines, bone marrow and tumors.

L1210 ascitic tumor = experiment: Treatment effects of liposomal mitoxantrone with different size on L1210 ascitic tumor; format: in vivo, BDF1 mice; settings: 4 mg/kg, 60 days observation
Source text: Ascitic tumor BDF1 mice which were inoculated with L1210 ascitic tumor cells 7 days ago were executed by decollation, and milky viscous ascitic fluid was extracted under aseptic condition and diluted by RPMI 1640 medium. After dilution, the tumor cell number was adjusted to 2.5×10^6 cells/ml. […] After inoculation, the cells in the residual tumor cell suspension were counted under light microscope, and living tumor cells were greater than 95%.
After administration, the mice were bred normally. Their body weights were measured 3 times per week, the death time of each mouse was observed and recorded, and survival time was calculated. Mean survival time (MST) and median survival time were employed to evaluate the survival time of each group. Experimental observation was kept for 60 days after the inoculation.
The experimental scheme and data process mode were the same as Example 19. […] The administration dosage for mice in each group was 4 mg/kg.

C57 mice = experiment: Toxicity comparison of liposome formulations with different sizes; format: in vivo
Protocol: The dose was 9 mg/kg. […] In mice of FM group, the body weight decreased over 30% and about 20% mice died.

[3] = two dissociable groups at physiological pH; cited from earlier work
S180 solid tumor = experiment: Treatment effects on S-180 sarcoma solid tumor; format: in vivo, KM mice; settings: 21st day after inoculation
Protocol: Ascitic tumor-bearing mice which were inoculated with S180 tumor cells 7 days ago were executed by decollation, and milky viscous ascitic fluid was extracted and diluted with RPMI 1640 medium. After dilution, the tumor cell number was adjusted to 2.5×10^6 cells/ml. […] After inoculation, the cells in the residual tumor cell suspension were counted under light microscope, and living tumor cells were greater than 95%. The number of inoculated mice was 80.
The mice were administered by intravenous injection.
The mice were bred normally after administration. Tumor diameters were measured by vernier caliper 3 times per week, and body weights were measured at the same time. Tumor volume (TV) was calculated with the following formula: V=½×a×b2, in which a and b represent length and width, respectively. The tumor volumes were calculated by using the measurement results. Mice were executed by decollation on the 21st day after inoculation, tumors were taken out and weighed. […] The experimental result was tested by t-test.

[4] = heart, read-out: concentration of mitoxantrone in Heart
[5] = intestine, read-out: concentration of mitoxantrone in Intestine
[6] = kidney, read-out: concentration of mitoxantrone in Kidney
[7] = liver, read-out: concentration of mitoxantrone in Liver
[8] = lung, read-out: concentration of mitoxantrone in Lung
[9] = spleen, read-out: concentration of mitoxantrone in Spleen
[10] = tumor, read-out: concentration of mitoxantrone in Tumor

O=C1c2c(O)ccc(O)c2C(=O)c2c(NCCNCCO)ccc(NCCNCCO)c21 [FM, mitoxantrone]
Survival time of mice (male / female), individual animals (Kunming mice; dose 12 mg/kg): 18 day (4×) and 13 day (3×) | Survival time of mice (male / female), individual animals (Kunming mice; dose 20 mg/kg): 7 day (4×) and 8 day (3×) | AUMC 0-48 [1]: 0.103 | AUMC 0-∞ [1]: 0.135 | AUC(0-inf) ([1]; male, Kunming, mouse, iv): 199 ng·h/mL | Cmax ([1]; male, Kunming, mouse, iv): 699 ng/mL | Tmax ([1]; male, Kunming, mouse, iv): 4.98 min | AUC(0-t) ([1]; male, Kunming, mouse, iv, read-out: AUC 0-48): 198 ng·h/mL | MRT last ([1]; male, Kunming, mouse, iv, read-out: MRT 0-48): 31 min | MRT inf ([1]; male, Kunming, mouse, iv, read-out: MRT 0-∞): 40.5 min | concentration at 1 h ([2]; bone marrow, read-out: concentration of mitoxantrone in Bone marrow): 127 ng/g | concentration at 1 h [2, 4]: 5380 ng/g | concentration at 4 h [2, 4]: 3520 ng/g | concentration at 8 h [2, 4]: 3200 ng/g | concentration at 24 h [2, 4]: 2940 ng/g | concentration at 1 h [2, 5]: 1530 ng/g | concentration at 4 h [2, 5]: 2140 ng/g | concentration at 8 h [2, 5]: 2550 ng/g | concentration at 24 h [2, 5]: 3940 ng/g | concentration at 1 h [2, 6]: 18200 ng/g | concentration at 4 h [2, 6]: 17200 ng/g | concentration at 8 h [2, 6]: 13400 ng/g | concentration at 24 h [2, 6]: 7460 ng/g | concentration at 1 h [2, 7]: 4770 ng/g | concentration at 4 h [2, 7]: 3560 ng/g | concentration at 8 h [2, 7]: 2660 ng/g | concentration at 24 h [2, 7]: 1940 ng/g | concentration at 1 h [2, 8]: 10200 ng/g | concentration at 4 h [2, 8]: 8020 ng/g | concentration at 8 h [2, 8]: 7020 ng/g | concentration at 24 h [2, 8]: 8080 ng/g | concentration at 1 h [2, 9]: 4040 ng/g | concentration at 4 h [2, 9]: 4460 ng/g | concentration at 8 h [2, 9]: 3770 ng/g | concentration at 24 h [2, 9]: 7750 ng/g | concentration at 1 h [2, 10]: 61.4 ng/g | concentration at 4 h [2, 10]: 13.3 ng/g | Mean survival time (L1210 ascitic tumor): 38.67 ± 3.54 | Median survival time (L1210 ascitic tumor): 36.00 ± 6.06 | Survival rate (L1210 ascitic tumor): 33.33% | mice died (C57 mice; male C57 mice, FM group): about 20% | body weight decrease (C57 mice; mouse, in vivo): over 30% | pKa [3]: 8.15 | Weight of tumor (S180 solid tumor; 4 mg/kg i.v.): 2828.5 ± 1067.8 mg | Ratio of tumor-inhibiting (S180 solid tumor; 6 mg/kg i.v.): 18.50% | Weight of tumor (S180 solid tumor; 6 mg/kg i.v.): 2293.3 ± 1720.0 mg
